Here are results for 1 compound from patent US9662322B2 (TEVA PHARMACEUTICAL INDUSTRIES, LTD., priority 2014, dated 2017).

The assay concerns subjects with relapsing remitting multiple sclerosis (RRMS). The experiment in a line: ALLEGRO Phase III trial: patient-reported fatigue and health status (MFIS, SF-36, EQ5D). The assay is classed as in vivo, human. Conditions: over 24 months. On the procedure:
The following assessments were performed at specified time points: • 1. Vital signs were measured at each study visit. • 2. A physical examination is performed at months −1 (screening), 0 (baseline) 1, 3, 6, 12, 18 and 24 (termination/early discontinuation core study). In case of the 6 months extended study, additional examination was performed at month 30 (termination/early discontinuation of extended study). • 3. The following safety clinical laboratory tests were performed: • a. Complete blood count (CBC) with differential—at all scheduled visits. A reticulocyte count was added to the CBC at months 0 (baseline) and 24/30 (termination/early discontinuation). • b. […] Adverse Events (AEs) are monitored throughout the study. • 9. Concomitant medications are monitored throughout the study. • 10. […] MS functional Composite (MSFC) was assessed at months −1 (screening) (three practices for training purposes only), at month 0 (baseline), 6, 12, 18 and 24 (termination/early discontinuation). […] Subject-reported fatigue was assessed by the Modified Fatigue Impact Scale (MFIS) at months 0, 6, 12, 18, and 24 (termination/early discontinuation). […] The general health status was assessed by the EuroQoL (EQ5D) questionnaire at month 0 (baseline) and month 24 (termination/early discontinuation of the study). […]

SMILES strings stand for the structures.

For `CCN(C(=O)c1c(O)c2c(Cl)cccc2n(C)c1=O)c1ccccc1` [Laquinimod, laquinimod], the “SF-36 physical component summary (PCS) course” value was “remained stable”.
